Legend:
Type in all cases: functional
RPMI-8226 = test: Growth inhibition of human RPMI8226 cells assessed as cell growth at 10^-5 M incubated for 48 hrs by sulforhodamine B assay relative to control; conditions: RPMI-8226, 48 h, read-out: Activity
HCC 2998 [1] = test: Growth inhibition of human HCC2998 cells assessed as cell growth at 10^-5 M incubated for 48 hrs by sulforhodamine B assay relative to control; conditions: HCC 2998, 48 h, read-out: Activity
M14 = test: Growth inhibition of human M14 cells assessed as cell growth at 10^-8 M incubated for 48 hrs by sulforhodamine B assay relative to control; conditions: M14, 48 h, read-out: Activity
T47D [2] = test: Growth inhibition of human T47D cells assessed as cell growth at 10^-5 M incubated for 48 hrs by sulforhodamine B assay relative to control; conditions: read-out: Activity
SK-MEL-2 = test: Growth inhibition of human SK-MEL-2 cells assessed as cell growth at 10^-4 M incubated for 48 hrs by sulforhodamine B assay relative to control; conditions: SK-MEL-2, 48 h, read-out: Activity
SNB-75 [3] = test: Growth inhibition of human SNB75 cells assessed as cell growth at 10^-5 M incubated for 48 hrs by sulforhodamine B assay relative to control; conditions: SNB-75, 48 h, read-out: Activity
NCI-H23 = test: Growth inhibition of human NCI-H23 cells assessed as cell growth at 10^-7 M incubated for 48 hrs by sulforhodamine B assay relative to control; conditions: NCI-H23, 48 h, read-out: Activity
SK-OV-3 = test: Growth inhibition of human SKOV3 cells assessed as cell growth at 10^-5 M incubated for 48 hrs by sulforhodamine B assay relative to control; conditions: SK-OV-3, 48 h, read-out: Activity
HOP-92 = test: Growth inhibition of human HOP92 cells assessed as cell growth at 10^-5 M incubated for 48 hrs by sulforhodamine B assay relative to control; conditions: HOP-92, 48 h, read-out: Activity
OVCAR-3 = test: Growth inhibition of human OVCAR3 cells assessed as cell growth at 10^-5 M incubated for 48 hrs by sulforhodamine B assay relative to control; conditions: OVCAR-3, 48 h, read-out: Activity
BT-549 = test: Growth inhibition of human BT549 cells assessed as cell growth at 10^-4 M incubated for 48 hrs by sulforhodamine B assay relative to control; conditions: BT-549, 48 h, read-out: Activity
786-0 = test: Growth inhibition of human 786-0 cells assessed as cell growth at 10^-5 M incubated for 48 hrs by sulforhodamine B assay relative to control; conditions: 786-0, 48 h, read-out: Activity
RXF 393 = test: Growth inhibition of human RXF393 cells assessed as cell growth at 10^-8 M incubated for 48 hrs by sulforhodamine B assay relative to control; conditions: RXF 393, 48 h, read-out: Activity
SK-MEL-5 = test: Growth inhibition of human SK-MEL-5 cells assessed as cell growth at 10^-4 M incubated for 48 hrs by sulforhodamine B assay relative to control; conditions: SK-MEL-5, 48 h, read-out: Activity
HL-60(TB) [4] = test: Cytotoxicity against human HL-60(TB) cells after 48 hrs by SRB assay; conditions: HL-60, 48 h; for CC50: read-out: pLC50 (the source's name) (converted)
SK-MEL-28 = test: Growth inhibition of human SK-MEL-28 cells assessed as cell growth at 10^-4 M incubated for 48 hrs by sulforhodamine B assay relative to control; conditions: SK-MEL-28, 48 h, read-out: Activity
EKVX = test: Growth inhibition of human EKVX cells assessed as cell growth at 10^-5 M incubated for 48 hrs by sulforhodamine B assay relative to control; conditions: read-out: Activity
SF-295 = test: Growth inhibition of human SF295 cells assessed as cell growth at 10^-5 M incubated for 48 hrs by sulforhodamine B assay relative to control; conditions: SF-295, 48 h, read-out: Activity
T47D [5] = test: Growth inhibition of human T47D cells assessed as cell growth at 10^-6 M incubated for 48 hrs by sulforhodamine B assay relative to control; conditions: read-out: Activity
MOLT-4 = test: Growth inhibition of human MOLT4 cells assessed as cell growth at 10^-5 M incubated for 48 hrs by sulforhodamine B assay relative to control; conditions: MOLT-4, 48 h, read-out: Activity
A498 = test: Growth inhibition of human A498 cells assessed as cell growth at 10^-4 M incubated for 48 hrs by sulforhodamine B assay relative to control; conditions: A498, 48 h, read-out: Activity
SNB-75 [6] = test: Growth inhibition of human SNB75 cells assessed as cell growth at 10^-4 M incubated for 48 hrs by sulforhodamine B assay relative to control; conditions: SNB-75, 48 h, read-out: Activity
MDA-MB-468 = test: Growth inhibition of human MDA-MB-468 cells assessed as cell growth at 10^-6 M incubated for 48 hrs by sulforhodamine B assay relative to control; conditions: MDA-MB-468, 48 h, read-out: Activity
NCI-H226 = test: Growth inhibition of human NCI-H226 cells assessed as cell growth at 10^-4 M incubated for 48 hrs by sulforhodamine B assay relative to control; conditions: NCI-H226, 48 h, read-out: Activity
LOX IMVI = test: Growth inhibition of human LOXIMVI cells assessed as cell growth at 10^-6 M incubated for 48 hrs by sulforhodamine B assay relative to control; conditions: read-out: Activity
HL-60(TB) [7] = test: Growth inhibition of human HL-60(TB) cells assessed as cell growth at 10^-4 M incubated for 48 hrs by sulforhodamine B assay relative to control; conditions: HL-60, 48 h, read-out: Activity
UO-31 = test: Growth inhibition of human UO31 cells assessed as cell growth at 10^-4 M incubated for 48 hrs by sulforhodamine B assay relative to control; conditions: UO-31, 48 h, read-out: Activity
T47D [8] = test: Cytotoxicity against human T47D cells after 48 hrs by SRB assay
NCI-H522 = test: Growth inhibition of human NCI-H522 cells assessed as cell growth at 10^-6 M incubated for 48 hrs by sulforhodamine B assay relative to control; conditions: NCI-H522, 48 h, read-out: Activity
NCI-H322M = test: Growth inhibition of human NCI-H322M cells assessed as cell growth at 10^-4 M incubated for 48 hrs by sulforhodamine B assay relative to control; conditions: read-out: Activity
T47D [9] = test: Growth inhibition of human T47D cells assessed as cell growth at 10^-4 M incubated for 48 hrs by sulforhodamine B assay relative to control; conditions: read-out: Activity
HCC 2998 [10] = test: Growth inhibition of human HCC2998 cells assessed as cell growth at 10^-4 M incubated for 48 hrs by sulforhodamine B assay relative to control; conditions: HCC 2998, 48 h, read-out: Activity
HT-29 = test: Growth inhibition of human HT-29 cells assessed as cell growth at 10^-5 M incubated for 48 hrs by sulforhodamine B assay relative to control; conditions: HT-29, 48 h, read-out: Activity
[11] = read-out: pLC50 (the source's name) (converted)

`C#C[C@@]1(O)[C@@H](CO)O[C@@H](n2ccc3c(N)ncnc32)[C@@H]1O` gave a growth at 10 µM (RPMI-8226) of 7%, a growth at 10 µM (HCC 2998 [1]) of -76% and a growth at 0.01 µM (M14) of 93%. For the same compound, the growth at 10 µM (T47D [2]) was -61%, the growth at 100 µM (SK-MEL-2) was -34% and the growth at 10 µM (SNB-75 [3]) was -64%. For the same compound, the growth at 0.1 µM (NCI-H23) was 93%, the growth at 10 µM (SK-OV-3) was -20% and the growth at 10 µM (HOP-92) was -29%. The growth at 10 µM (OVCAR-3) was 3%, the growth at 100 µM (BT-549) was -95% and the growth at 10 µM (786-0) was -18%. It also gave a growth at 0.01 µM (RXF 393) of 99%, a growth at 100 µM (SK-MEL-5) of -99% and a TGI (HL-60(TB) [4]; read-out: TGI) of 5490 nM. The GI50 (HL-60(TB) [4]; read-out: pGI50 (converted)) was 1580 nM, the CC50 (HL-60(TB) [4]) was over 100000 nM and the TGI (HL-60(TB) [4]; read-out: pTGI (converted)) was 5500 nM. It also gave a growth at 100 µM (SK-MEL-28) of -47%, a growth at 10 µM (EKVX) of -24% and a growth at 10 µM (SF-295) of -28%. It also gave a growth at 1 µM (T47D [5]) of 30%, a growth at 10 µM (MOLT-4) of 2% and a growth at 100 µM (A498) of -47%. For the same compound, the growth at 100 µM (SNB-75 [6]) was -42%, the growth at 1 µM (MDA-MB-468) was 64% and the growth at 100 µM (NCI-H226) was -61%. It also gave a growth at 1 µM (LOX IMVI) of 40%, a growth at 100 µM (HL-60(TB) [7]) of -38% and a growth at 100 µM (UO-31) of -37%. It also gave a TGI (T47D [8]; read-out: TGI) of 2140 nM, a GI50 (T47D [8]; read-out: pGI50 (converted)) of 447 nM and a CC50 (T47D [8]; [11]) of 7590 nM. The TGI (T47D [8]; read-out: pTGI (converted)) was 2140 nM, the growth at 1 µM (NCI-H522) was 29% and the growth at 100 µM (NCI-H322M) was -65%. It also gave a growth at 100 µM (T47D [9]) of -71% and a growth at 100 µM (HCC 2998 [10]) of -78%.
For `C#C[C@@]1(O)[C@@H](CO)O[C@@H](n2cc(Cl)c3c(N)ncnc32)[C@@H]1O`, the growth at 0.01 µM (M14) was 93 to 94%, the growth at 0.1 µM (NCI-H23) was 69 to 73% and the growth at 0.01 µM (RXF 393) was 101 to 108%. It also gave a GI50 (HL-60(TB) [4]; read-out: GI50) of 34.1 to 84 nM, a TGI (HL-60(TB) [4]; read-out: TGI) of 197 to 317 nM and a CC50 (HL-60(TB) [4]) of over 100000 nM. For the same compound, the growth at 10 µM (MOLT-4) was 2%, the GI50 (T47D [8]; read-out: GI50) was 33.6 to 98 nM and the CC50 (T47D [8]; read-out: LC50 (the source's name)) was over 100000 nM. For the same compound, the TGI (T47D [8]; read-out: TGI) was 428 to 559 nM.
`C#C[C@@]1(O)[C@@H](CO)O[C@@H](n2cc(F)c3c(N)ncnc32)[C@@H]1O` showed a growth at 10 µM (RPMI-8226) of -2%, a growth at 10 µM (HCC 2998 [1]) of -45% and a growth at 0.01 µM (M14) of 101%. It also gave a growth at 10 µM (T47D [2]) of -39%, a growth at 100 µM (SK-MEL-2) of -36% and a growth at 10 µM (SNB-75 [3]) of -90%. The growth at 0.1 µM (NCI-H23) was 91%, the growth at 10 µM (SK-OV-3) was -26% and the growth at 10 µM (HOP-92) was -33%. The growth at 10 µM (HT-29) was 2%, the growth at 10 µM (OVCAR-3) was 5% and the growth at 100 µM (BT-549) was -42%. For the same compound, the growth at 10 µM (786-0) was -52%, the growth at 0.01 µM (RXF 393) was 94% and the growth at 100 µM (SK-MEL-5) was -93%. The TGI (HL-60(TB) [4]; read-out: TGI) was 3530 nM, the GI50 (HL-60(TB) [4]; read-out: pGI50 (converted)) was 437 nM and the CC50 (HL-60(TB) [4]) was over 100000 nM. The TGI (HL-60(TB) [4]; read-out: pTGI (converted)) was 3550 nM, the growth at 100 µM (SK-MEL-28) was 19% and the growth at 10 µM (EKVX) was 1%. For the same compound, the growth at 10 µM (SF-295) was -69%, the growth at 1 µM (T47D [5]) was -10% and the growth at 10 µM (MOLT-4) was 2%. The growth at 100 µM (A498) was -75%, the growth at 100 µM (SNB-75 [6]) was -86% and the growth at 1 µM (MDA-MB-468) was 13%. For the same compound, the growth at 100 µM (NCI-H226) was -45%, the growth at 1 µM (LOX IMVI) was 4% and the growth at 100 µM (HL-60(TB) [7]) was -32%. The growth at 100 µM (UO-31) was -30%, the TGI (T47D [8]; read-out: TGI) was 770 nM and the GI50 (T47D [8]; read-out: pGI50 (converted)) was 214 nM. It also gave a CC50 (T47D [8]; [11]) of 20000 nM, a TGI (T47D [8]; read-out: pTGI (converted)) of 776 nM and a growth at 1 µM (NCI-H522) of -2%. For the same compound, the growth at 100 µM (NCI-H322M) was -30%, the growth at 100 µM (T47D [9]) was -77% and the growth at 100 µM (HCC 2998 [10]) was -71%.
